Experiments:
[1] = system: KANK1 localization to focal adhesions of NIH3T3 fibroblasts; assay: KANK1 localization in vin880-expressing cells treated with ROCK inhibitor; format: cell-based, mouse
Protocol: NIH3T3 mouse fibroblasts and HEK293T human epithelial cells were obtained from the American Type Culture Collection (ATCC). The vinculin null and WT mouse embryonic fibroblasts (MEFs) originate from the Eileen Adamson laboratory. All cells were maintained in Dulbecco's Modified Eagle Medium (DMEM; Sigma) supplemented with 10% fetal bovine serum (FBS, Gibco), 1% L-glutamine (Sigma) and 1% non-essential amino acids (Sigma). Talin1&2 null cells were cultured in DMEM F-12 (Gibco) supplemented with 10% FBS, 1% L-glutamine, 1% non-essential amino acids and […] HEPES (Sigma). All cells were cultured at 37̊C supplied with 5% CO2 and 95% humidity. Transient transfections were performed using Lipofectamine LTX with Plus Reagent (Invitrogen) to NIH3T3 cells, Lipofectamine 2000 (Invitrogen) to talin null cells, and jetPRIME reagent (Polyplus) to MEFs and HEK293T cells, as per the manufacturer's instructions.
For fixed cell imaging, cells were cultured in glass-bottom dishes (IBL) coated with bovine fibronectin (Sigma) at a final concentration of 10 µg ml^−1. […]
(§1) Images of fixed samples in PBS were acquired at room temperature using an Olympus IX83 inverted microscope equipped with a 60×/1.42 PlanApo N oil objective and a QImaging Retiga R6 CCD camera, controlled by Metamorph software. Samples were illuminated using LEDs (UV/Cyan/Green-Yellow/Red, Lumencor) for fluorescence excitation; a Sedat filter set (DAPI/FITC/TRITC/Cy5, Chroma, 89000) was used.
FIJI-ImageJ [33] software was used to process all images. Cell-matrix adhesion size was quantified as described previously, by subtracting background signal using a rolling ball algorithm, followed by thresholding to select adhesion structures and the Analyze Particles function to quantify adhesions. […] Pearson's correlation coefficient of fluorescence signals (40 × 40 µm^2 square adhesion area) was measured by subtracting the background signal, followed by automatic thresholding and colocalization analysis using the Bioimaging and Optics Platform (BIOP) version JACoP plugin [34]. […]

[2] = system: mCherry–KANK1; assay: MTS colocalization of truncated or mutated talin constructs with KANK1; format: cell-based, human; settings: MTS colocalization assay, cBAK-tagged talin constructs
Description: To examine the effect of these KANK1 mutations on talin interactions in cells, we next used a mitochondrial targeting system (MTS) which we previously used to screen for defined protein–protein interactions. In this assay, one protein is fused to a small peptide sequence from the pro-apoptotic protein BAK (cBAK) which leads to its insertion into the outer membrane of mitochondria. Proteins that interact with the cBAK-tagged protein will get recruited to mitochondria, and this recruitment can be verified either by visualizing colocalization using fluorescence microscopy (figure 4a) or by purification of mitochondria followed by detection of co-precipitates using biochemistry (figure 4b,c). […] To confirm that the interaction was meditated by the R7 domain, we performed the colocalization assays with truncated talin constructs. […]
as §1

Molecule	KANK1 localization (in words) ([1]; NIH3T3 cells expressing vin880 treated with Y-27632)	Pearson's mean correlation coefficient of KANK1/paxillin overlap ([1]; NIH3T3 with GFP–vin880 and mCherry–KANK1, Y-27632 50 µM, 60 min, 20 images (40 × 40 µm^2) per group, ± s.d., water control r = 0.59 ± 0.05, p < 0.001 (Welch's t-test))	Percentage of belt-positive FAs ([1]; NIH3T3 with GFP–vin880 and mCherry–KANK1, Y-27632 50 µM, 60 min, FAs over 0.3 µm^2, n = 17, ± s.d., water control 17.90 ± 3.27% (n = 28), p < 0.001 (Welch's t-test))	colocalization of talin construct with KANK1 [2]
C[C@@H](N)[C@H]1CC[C@H](C(=O)Nc2ccncc2)CC1 [Y-27632]	KANK1 colocalized with paxillin in FAs throughout the whole FA structure	0.82 ± 0.04	0.02 ± 0.10%	
GFP–talin1G1404L–cBAK: GFP–talin1–cBAK with the R7 G1404L mutation				prevented colocalization

From paper PMC10281804, “The structural basis of the talin–KANK1 interaction that coordinates the actin and microtubule cytoskeletons at focal adhesions” (Open Biology, 2023)
